Among the data in patent publication US20250059159A1, “PLPRO INHIBITORS” (SHANGHAI SYNERGY PHARMACEUTICAL SCIENCES CO., LTD., priority 2021, published 2025) are IC50 and EC50 values, retold here.

One assay has as its target SARS-CoV-2 PLpro (Severe acute respiratory syndrome coronavirus 2 (2019-nCoV) (SARS-CoV-2), UniProt P0DTD1). The assay is described as follows: PLpro enzymatic inhibition assay (IC50 value determination). In kind it is biochemical. The settings on record: 60 min preincubation for covalent inhibitors, 10 min for non-covalent, read-out: Inhibition of SARS-CoV-2 PLpro IC50 range.

Another assay deals with SARS-CoV2 (Omicron). Kind of assay: SARS-CoV2 antiviral cellular activity assay in A549:hACE2 cells. The settings on record: Severe acute respiratory syndrome coronavirus 2, 48 h; read-out: Antiviral cellular EC50 range (Omicron). In kind it is cell-based.

As for `COC(=O)/C=C/CNC(=O)CNC(=O)CN(C1CCN([C@H](C)c2cccc3ccccc23)CC1)S(C)(=O)=O` [Compound 20, methyl (R,E)-4-(2-(2-(N-(1-(1-(naphthalen-1-yl)ethyl)piperidin-4-yl)methylsulfonamido)acetamido)acetamido)but-2-enoate], at SARS-CoV-2 PLpro, the IC50 was < 100 nM. Moreover, in the assay on SARS-CoV2 (Omicron), the half-maximal effective concentration (EC50) was < 100 nM.
For the compound `C#CCNC(=O)CNC(=O)CN(C1CCN([C@H](C)c2cccc3ccccc23)CC1)S(C)(=O)=O` [Compound 21, (R)-2-(N-(1-(1-(naphthalen-1-yl)ethyl)piperidin-4-yl)methylsulfonamido)-N-(2-oxo-2-(prop-2-yn-1-ylamino)ethyl)acetamide], the half-inhibitory concentration (IC50) at SARS-CoV-2 PLpro was < 100 nM. For the same compound, the EC50 in the assay on SARS-CoV2 (Omicron) is < 100 nM.
`C#CCNC(=O)CNC(=O)CN(C1CCN([C@H](C)c2cccc3ccccc23)CC1)S(=O)(=O)C1CC1` [Compound 60, (R)-2-(N-(1-(1-(naphthalen-1-yl)ethyl)piperidin-4-yl)cyclopropanesulfonamido)-N-(2-oxo-2-(prop-2-yn-1-ylamino)ethyl)acetamide]: the IC50 on SARS-CoV-2 PLpro was < 100 nM. In addition, in the assay with SARS-CoV2 (Omicron), the EC50 is < 100 nM.
Take `C#CCNC(=O)CNC(=O)CN(C1CCN([C@H](C)c2cccc3ccccc23)CC1)S(=O)(=O)c1ccccc1` [Compound 63, (R)-2-(N-(1-(1-(naphthalen-1-yl)ethyl)piperidin-4-yl)phenylsulfonamido)-N-(2-oxo-2-(prop-2-yn-1-ylamino)ethyl)acetamide]: at SARS-CoV-2 PLpro, the IC50 was < 100 nM. In addition, the 50% effective concentration (EC50) in the assay on SARS-CoV2 (Omicron) was < 100 nM.
As for `C#CCNC(=O)CNC(=O)CN(C1CCN([C@H](C)c2cccc3ccccc23)CC1)S(=O)(=O)N1CCCC1` [Compound 65, (R)-2-(N-(1-(1-(naphthalen-1-yl)ethyl)piperidin-4-yl)pyrrolidine-1-sulfonamido)-N-(2-oxo-2-(prop-2-yn-1-ylamino)ethyl)acetamide], the IC50 at SARS-CoV-2 PLpro was < 100 nM. In addition, the concentration for a half-maximal effect (EC50) with SARS-CoV2 (Omicron) is < 100 nM.
As to `C#CCNC(=O)CNC(=O)CN(CCC(C)=O)C1CCN([C@H](C)c2cccc3ccccc23)CC1` [Compound 79, (R)-2-((1-(1-(naphthalen-1-yl)ethyl)piperidin-4-yl)(3-oxobutyl)amino)-N-(2-oxo-2-(prop-2-yn-1-ylamino)ethyl)acetamide], the IC50 on SARS-CoV-2 PLpro was < 100 nM. In addition, the half-maximal effective concentration (EC50) with SARS-CoV2 (Omicron) lay in the range of 100 to 1000 nM.
On the same counts, the results for `C#CCNC(=O)CNC(=O)CN(C1CCN([C@H](C)c2cccc3ccccc23)CC1)S(=O)(=O)C(F)(F)F` [Compound 80, (R)—N-(2-oxo-2-(prop-2-yn-1-ylamino)ethyl)-2-((1,1,1-trifluoro-N-(1-(1-(naphthalen-1-yl)ethyl)piperidin-4-yl)methyl)sulfonamido)acetamide] are < 100 nM and 100 to 1000 nM.
On the same counts, the results for `C#CCNC(=O)CNC(=O)CN(C1CCN(C(C)c2ccc(F)c3ccccc23)CC1)S(C)(=O)=O` (stereo not drawn) [Compound 107] are < 100 nM and 100 to 1000 nM.
On to `[2H]C([2H])([2H])C(c1cccc2ccccc12)N1CCC(N(CC(=O)NCC(=O)NCC#C)S(C)(=O)=O)CC1` (stereo not drawn) [Compound 151, 2-(N-(1-(1-(naphthalen-1-yl)ethyl-2,2,2-d3)piperidin-4-yl)methylsulfonamido)-N-(2-oxo-2-(prop-2-yn-1-ylamino)ethyl)acetamide], for which, at SARS-CoV-2 PLpro, the IC50 was < 100 nM.
Regarding `C#CCNC(=O)CNC(=O)[C@@H](C)N(C1CCN([C@H](C)c2cccc3ccccc23)CC1)S(C)(=O)=O` [Compound 152, (R)-2-(N-(1-((R)-1-(naphthalen-1-yl)ethyl)piperidin-4-yl)methylsulfonamido)-N-(2-oxo-2-(prop-2-yn-1-ylamino)ethyl)propanamide], at SARS-CoV-2 PLpro, the IC50 is < 100 nM.
The same measure, in the same setting: the figure for `[2H]C([2H])(C#C)NC(=O)CNC(=O)CN(C1CCN(C(C)c2cccc3ccccc23)CC1)S(C)(=O)=O` (stereo not drawn) [Compound 153, 2-(N-(1-(1-(naphthalen-1-yl)ethyl)piperidin-4-yl)methylsulfonamido)-N-(2-oxo-2-((prop-2-yn-1-yl-1,l-d2)amino)ethyl)acetamide] is < 100 nM.
In the case of `COC(CNC(=O)CNC(=O)CN(C1CCN(C(C)c2cccc3ccccc23)CC1)S(C)(=O)=O)OC` (stereo not drawn) [Compound 154, N-(2,2-dimethoxyethyl)-2-(2-(N-(1-(1-(naphthalen-1-yl)ethyl)piperidin-4-yl)methylsulfonamido)acetamido)acetamide], on SARS-CoV-2 PLpro, the IC50 was in the range of 1000 to 10000 nM.
The same measure, in the same setting: the figure for `C#CC(C)(C)CNC(=O)CNC(=O)CN(C1CCN(C(C)c2cccc3ccccc23)CC1)S(C)(=O)=O` (stereo not drawn) [Compound 156, N-(2,2-dimethylbut-3-yn-1-yl)-2-(2-(N-(1-(1-(naphthalen-1-yl)ethyl)piperidin-4-yl)methylsulfonamido)acetamido)acetamide] is 1000 to 10000 nM.
Consider `C#CCCNC(=O)CNC(=O)CN(C1CCN(C(C)c2cccc3ccccc23)CC1)S(C)(=O)=O` (stereo not drawn) [Compound 157, N-(but-3-yn-1-yl)-2-(2-(N-(1-(1-(naphthalen-1-yl)ethyl)piperidin-4-yl)methylsulfonamido)acetamido)acetamide], for which the IC50 at SARS-CoV-2 PLpro is 100 to 1000 nM.
On the same count and under the same terms, the figure for `CC(c1cccc2ccccc12)N1CCC(N(CC(=O)NCC(=O)NC/C=C/C(N)=O)S(C)(=O)=O)CC1` (stereo not drawn) [Compound 159, (E)-4-(2-(2-(N-(1-(1-(naphthalen-1-yl)ethyl)piperidin-4-yl)methylsulfonamido)acetamido)acetamido)but-2-enamide] is 100 to 1000 nM.
With `COC(=O)/C(C#N)=C/CNC(=O)CNC(=O)CN(C1CCN(C(C)c2cccc3ccccc23)CC1)S(C)(=O)=O` (stereo not drawn) [Compound 162, methyl (E)-2-cyano-4-(2-(2-(N-(1-(1-(naphthalen-1-yl)ethyl)piperidin-4-yl)methylsulfonamido)acetamido)acetamido)but-2-enoate], the IC50 on SARS-CoV-2 PLpro lay within 100 to 1000 nM.
Still for that read-out and setting: the same measure for `C#CCNC(=S)CNC(=O)CN(C1CCN(C(C)c2cccc3ccccc23)CC1)S(C)(=O)=O` (stereo not drawn) [Compound 164, 2-(N-(1-(1-(naphthalen-1-yl)ethyl)piperidin-4-yl)methylsulfonamido)-N-(2-(prop-2-yn-1-ylamino)-2-thioxoethyl)acetamide]: < 100 nM; for `C=CC(=O)NNC(=O)CN(C1CCN(C(C)c2cccc3ccccc23)CC1)S(C)(=O)=O` (stereo not drawn) [Compound 168, N-(2-(2-acryloylhydrazineyl)-2-oxoethyl)-N-(1-(1-(naphthalen-1-yl)ethyl)piperidin-4-yl)methanesulfonamide]: 1000 to 10000 nM.
On to `C#Cc1nnc(NC(=O)CN(C2CCN(C(C)c3cccc4ccccc34)CC2)S(C)(=O)=O)o1` (stereo not drawn) [Compound 170, N-(5-ethynyl-1,3,4-oxadiazol-2-yl)-2-(N-(1-(1-(naphthalen-1-yl)ethyl)piperidin-4-yl)methylsulfonamido)acetamide], for which the IC50 on SARS-CoV-2 PLpro fell in the range of 1000 to 10000 nM.

For orientation: IC50 means the midpoint of a concentration-inhibition curve. Broadly, the EC50 is the concentration that produces a half-maximal response.
